Laboratory results taken from patent US6638973B2, “Taxane formulations” (FSU Research Foundation, Inc., priority 2000, dated 2003).

System: HCT116 cells
Test: In vitro cytotoxicity measured by the cell colony formation assay
Assay type: cell-based
Details: HCT116 cells, 72 h incubation with drug, colonies counted after 7 days; ID50 = drug concentration producing 50% inhibition of colony formation; read-out: IN VITRO ID 50 (nm) HCT116
Method in brief: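 Colony-forming survival was scored 7 days after a 72 h, 37 °C compound exposure followed by washout into fresh medium.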

SMILES | IC50
COC(=O)O[C@H]1C(=O)[C@@]2(C)C([C@H](OC(=O)c3ccccc3)[C@]3(O)C[C@H](OC(=O)[C@H](O)[C@@H](NC(=O)OC(C)(C)C)c4ccco4)C(C)=C1C3(C)C)[C@]1(OC(C)=O)CO[C@@H]1C[C@@H]2O (stereo partly drawn) [Compound 2666] | < 1 nM
CCOC(=O)O[C@H]1C(=O)[C@@]2(C)C([C@H](OC(=O)c3ccccc3)[C@]3(O)C[C@H](OC(=O)[C@H](O)[C@@H](NC(=O)c4ccccc4)c4cccs4)C(C)=C1C3(C)C)[C@]1(OC(C)=O)CO[C@@H]1C[C@@H]2O (stereo partly drawn) [Compound 2972] | < 10 nM
CCOC(=O)N[C@@H](c1cccs1)[C@@H](O)C(=O)O[C@H]1C[C@@]2(O)[C@@H](OC(=O)c3ccccc3)C3[C@](C)(C(=O)[C@H](OC(=O)OCC)C(=C1C)C2(C)C)[C@@H](O)C[C@H]1OC[C@@]31OC(C)=O (stereo partly drawn) [Compound 2988] | < 1 nM
CCOC(=O)O[C@H]1C(=O)[C@@]2(C)C([C@H](OC(=O)c3ccccc3)[C@]3(O)C[C@H](OC(=O)[C@H](O)[C@@H](NC(=O)OC(C)C)c4cccs4)C(C)=C1C3(C)C)[C@]1(OC(C)=O)CO[C@@H]1C[C@@H]2O (stereo partly drawn) [Compound 2999] | < 1 nM
CCOC(=O)O[C@H]1C(=O)[C@@]2(C)C([C@H](OC(=O)c3ccccc3)[C@]3(O)C[C@H](OC(=O)[C@H](O)[C@@H](NC(=O)OCC(C)C)c4cccs4)C(C)=C1C3(C)C)[C@]1(OC(C)=O)CO[C@@H]1C[C@@H]2O (stereo partly drawn) [Compound 3003] | < 10 nM
CCOC(=O)O[C@H]1C(=O)[C@@]2(C)C([C@H](OC(=O)c3ccccc3)[C@]3(O)C[C@H](OC(=O)[C@H](O)[C@@H](NC(=O)c4ccco4)c4cccs4)C(C)=C1C3(C)C)[C@]1(OC(C)=O)CO[C@@H]1C[C@@H]2O (stereo partly drawn) [Compound 3011] | < 1 nM
CCOC(=O)O[C@H]1C(=O)[C@@]2(C)C([C@H](OC(=O)c3ccccc3)[C@]3(O)C[C@H](OC(=O)[C@H](O)[C@@H](NC(=O)c4cccs4)c4cccs4)C(C)=C1C3(C)C)[C@]1(OC(C)=O)CO[C@@H]1C[C@@H]2O (stereo partly drawn) [Compound 3020] | < 1 nM

Same assay, conditions: HCT116 cells, colony formation, 72 h incubation with drug, colonies counted after 7 days; ID50 = drug concentration producing 50% inhibition of colony formation; read-out: IN VITRO ID 50 (nm) HCT116

SMILES | IC50
CCNC(=O)O[C@H]1C(=O)[C@@]2(C)C([C@H](OC(=O)c3ccccc3)[C@]3(O)C[C@H](OC(=O)[C@H](O)[C@@H](NC(=O)OC(C)(C)C)c4ccccn4)C(C)=C1C3(C)C)[C@]1(OC(C)=O)CO[C@@H]1C[C@@H]2O (stereo partly drawn) [Compound 2600] | < 1 nM
CCNC(=O)O[C@H]1C(=O)[C@@]2(C)C([C@H](OC(=O)c3ccccc3)[C@]3(O)C[C@H](OC(=O)[C@H](O)[C@@H](NC(=O)OC(C)(C)C)c4cccnc4)C(C)=C1C3(C)C)[C@]1(OC(C)=O)CO[C@@H]1C[C@@H]2O (stereo partly drawn) [Compound 2616] | 27 nM
CCNC(=O)O[C@H]1C(=O)[C@@]2(C)C([C@H](OC(=O)c3ccccc3)[C@]3(O)C[C@H](OC(=O)[C@H](O)[C@@H](NC(=O)OC(C)(C)C)c4ccsc4)C(C)=C1C3(C)C)[C@]1(OC(C)=O)CO[C@@H]1C[C@@H]2O (stereo partly drawn) [Compound 2622] | < 1 nM
CCNC(=O)O[C@H]1C(=O)[C@@]2(C)C([C@H](OC(=O)c3ccccc3)[C@]3(O)C[C@H](OC(=O)[C@H](O)[C@@H](NC(=O)OC(C)(C)C)C(C)C)C(C)=C1C3(C)C)[C@]1(OC(C)=O)CO[C@@H]1C[C@@H]2O (stereo partly drawn) [Compound 2633] | < 10 nM
CCNC(=O)O[C@H]1C(=O)[C@@]2(C)C([C@H](OC(=O)c3ccccc3)[C@]3(O)C[C@H](OC(=O)[C@H](O)[C@@H](NC(=O)OC(C)(C)C)c4ccccc4)C(C)=C1C3(C)C)[C@]1(OC(C)=O)CO[C@@H]1C[C@@H]2O (stereo partly drawn) [Compound 2640] | < 1 nM
CCNC(=O)O[C@H]1C(=O)[C@@]2(C)C([C@H](OC(=O)c3ccccc3)[C@]3(O)C[C@H](OC(=O)[C@H](O)[C@H](C=C(C)C)NC(=O)OC(C)(C)C)C(C)=C1C3(C)C)[C@]1(OC(C)=O)CO[C@@H]1C[C@@H]2O (stereo partly drawn) [Compound 2686] | < 1 nM
CCNC(=O)O[C@H]1C(=O)[C@@]2(C)C([C@H](OC(=O)c3ccccc3)[C@]3(O)C[C@H](OC(=O)[C@H](O)[C@@H](NC(=O)OC(C)(C)C)c4ccco4)C(C)=C1C3(C)C)[C@]1(OC(C)=O)CO[C@@H]1C[C@@H]2O (stereo partly drawn) [Compound 2700] | < 1 nM
CCNC(=O)O[C@H]1C(=O)[C@@]2(C)C([C@H](OC(=O)c3ccccc3)[C@]3(O)C[C@H](OC(=O)[C@H](O)[C@@H](NC(=O)OC(C)(C)C)c4ccoc4)C(C)=C1C3(C)C)[C@]1(OC(C)=O)CO[C@@H]1C[C@@H]2O (stereo partly drawn) [Compound 2717] | < 1 nM
CCNC(=O)O[C@H]1C(=O)[C@@]2(C)C([C@H](OC(=O)c3ccccc3)[C@]3(O)C[C@H](OC(=O)[C@H](O)[C@@H](NC(=O)OC(C)(C)C)c4cccs4)C(C)=C1C3(C)C)[C@]1(OC(C)=O)CO[C@@H]1C[C@@H]2O (stereo partly drawn) [Compound 2722, 3′-Desphenyl-3′-(2-thienyl)-10-N-ethylcarbamoyl docetaxel] | < 1 nM
CCNC(=O)O[C@H]1C(=O)[C@@]2(C)C([C@H](OC(=O)c3ccccc3)[C@]3(O)C[C@H](OC(=O)[C@H](O)[C@@H](NC(=O)OC(C)(C)C)C4CCC4)C(C)=C1C3(C)C)[C@]1(OC(C)=O)CO[C@@H]1C[C@@H]2O (stereo partly drawn) [Compound 2733] | < 10 nM
CCNC(=O)O[C@H]1C(=O)[C@@]2(C)C([C@H](OC(=O)c3ccccc3)[C@]3(O)C[C@H](OC(=O)[C@H](O)[C@@H](NC(=O)OC(C)(C)C)c4ccc([N+](=O)[O-])cc4)C(C)=C1C3(C)C)[C@]1(OC(C)=O)CO[C@@H]1C[C@@H]2O (stereo partly drawn) [Compound 2743] | < 1 nM
CCNC(=O)O[C@H]1C(=O)[C@@]2(C)C([C@H](OC(=O)c3ccccc3)[C@]3(O)C[C@H](OC(=O)[C@H](O)[C@@H](NC(=O)OC(C)(C)C)C4CC4)C(C)=C1C3(C)C)[C@]1(OC(C)=O)CO[C@@H]1C[C@@H]2O (stereo partly drawn) [Compound 2757] | < 1 nM

Same assay, conditions: HCT116 colony formation; 72 h drug incubation, colonies counted after 7 days; Example 5, C-7 ester/C-10 hydroxy taxanes; read-out: IN VITRO ID 50 (nm) HCT116

SMILES | IC50
CCC(=O)O[C@H]1C[C@H]2OC[C@@]2(OC(C)=O)C2[C@H](OC(=O)c3ccccc3)[C@]3(O)C[C@H](OC(=O)[C@H](O)[C@@H](NC(=O)c4ccco4)c4cccs4)C(C)=C([C@@H](O)C(=O)[C@@]21C)C3(C)C (stereo partly drawn) [Compound 3069] | < 1 nM
CCC(=O)O[C@H]1C[C@H]2OC[C@@]2(OC(C)=O)C2[C@H](OC(=O)c3ccccc3)[C@]3(O)C[C@H](OC(=O)[C@H](O)[C@@H](NC(=O)OC(C)C)c4cccs4)C(C)=C([C@@H](O)C(=O)[C@@]21C)C3(C)C (stereo partly drawn) [Compound 3082] | < 1 nM

Same assay, conditions: HCT116 colony formation; 72 h drug incubation, colonies counted after 7 days; Example 10, C-10 ester/C-7 hydroxy taxanes; read-out: IN VITRO ID 50 (nm) HCT116

SMILES | IC50
CC(=O)O[C@@]12CO[C@@H]1C[C@H](O)[C@@]1(C)C(=O)[C@H](OC(=O)C3CC3)C3=C(C)[C@@H](OC(=O)[C@H](O)[C@@H](NC(=O)OC(C)(C)C)c4ccoc4)C[C@@](O)([C@@H](OC(=O)c4ccccc4)C12)C3(C)C (stereo partly drawn) [Compound 2781] | < 1 nM
CC(=O)O[C@@]12CO[C@@H]1C[C@H](O)[C@@]1(C)C(=O)[C@H](OC(=O)C3CC3)C3=C(C)[C@@H](OC(=O)[C@H](O)[C@@H](NC(=O)OC(C)(C)C)c4ccsc4)C[C@@](O)([C@@H](OC(=O)c4ccccc4)C12)C3(C)C (stereo partly drawn) [Compound 2794] | < 1 nM
CC(=O)O[C@@]12CO[C@@H]1C[C@H](O)[C@@]1(C)C(=O)[C@H](OC(=O)C3CC3)C3=C(C)[C@@H](OC(=O)[C@H](O)[C@@H](NC(=O)OC(C)(C)C)c4ccccn4)C[C@@](O)([C@@H](OC(=O)c4ccccc4)C12)C3(C)C (stereo partly drawn) [Compound 2802] | < 1 nM
CC(=O)O[C@@]12CO[C@@H]1C[C@H](O)[C@@]1(C)C(=O)[C@H](OC(=O)C3CC3)C3=C(C)[C@@H](OC(=O)[C@H](O)[C@@H](NC(=O)OC(C)(C)C)c4ccncc4)C[C@@](O)([C@@H](OC(=O)c4ccccc4)C12)C3(C)C (stereo partly drawn) [Compound 2813] | < 1 nM
CC(=O)O[C@@]12CO[C@@H]1C[C@H](O)[C@@]1(C)C(=O)[C@H](OC(=O)C3CC3)C3=C(C)[C@@H](OC(=O)[C@H](O)[C@@H](NC(=O)c4ccccc4)c4ccoc4)C[C@@](O)([C@@H](OC(=O)c4ccccc4)C12)C3(C)C (stereo partly drawn) [Compound 2826] | < 1 nM
CC(=O)O[C@@]12CO[C@@H]1C[C@H](O)[C@@]1(C)C(=O)[C@H](OC(=O)C3CC3)C3=C(C)[C@@H](OC(=O)[C@H](O)[C@@H](NC(=O)c4ccccc4)c4ccsc4)C[C@@](O)([C@@H](OC(=O)c4ccccc4)C12)C3(C)C (stereo partly drawn) [Compound 2838] | < 1 nM
CC(=O)O[C@@]12CO[C@@H]1C[C@H](O)[C@@]1(C)C(=O)[C@H](OC(=O)C3CC3)C3=C(C)[C@@H](OC(=O)[C@H](O)[C@@H](NC(=O)c4ccccc4)c4ccccn4)C[C@@](O)([C@@H](OC(=O)c4ccccc4)C12)C3(C)C (stereo partly drawn) [Compound 2844] | < 10 nM
CC(=O)O[C@@]12CO[C@@H]1C[C@H](O)[C@@]1(C)C(=O)[C@H](OC(=O)C3CC3)C3=C(C)[C@@H](OC(=O)[C@H](O)[C@@H](NC(=O)c4ccccc4)c4ccncc4)C[C@@](O)([C@@H](OC(=O)c4ccccc4)C12)C3(C)C (stereo partly drawn) [Compound 2855] | < 1 nM
CC(=O)O[C@@]12CO[C@@H]1C[C@H](O)[C@@]1(C)C(=O)[C@H](OC(=O)C3CC3)C3=C(C)[C@@H](OC(=O)[C@H](O)[C@@H](NC(=O)c4ccccc4)c4ccc([N+](=O)[O-])cc4)C[C@@](O)([C@@H](OC(=O)c4ccccc4)C12)C3(C)C (stereo partly drawn) [Compound 2869] | < 10 nM
CCC(=O)O[C@H]1C(=O)[C@@]2(C)C([C@H](OC(=O)c3ccccc3)[C@]3(O)C[C@H](OC(=O)[C@H](O)[C@@H](NC(=O)c4ccco4)c4cccs4)C(C)=C1C3(C)C)[C@]1(OC(C)=O)CO[C@@H]1C[C@@H]2O (stereo partly drawn) [Compound 3053] | < 1 nM
CC(=O)O[C@@]12CO[C@@H]1C[C@H](O)[C@@]1(C)C(=O)[C@H](OC(=O)C3CC3)C3=C(C)[C@@H](OC(=O)[C@H](O)[C@@H](NC(=O)OC(C)C)c4cccs4)C[C@@](O)([C@@H](OC(=O)c4ccccc4)C12)C3(C)C (stereo partly drawn) [Compound 3071] | < 1 nM
CC(=O)O[C@@]12CO[C@@H]1C[C@H](O)[C@@]1(C)C(=O)[C@H](OC(=O)C3CC3)C3=C(C)[C@@H](OC(=O)[C@H](O)[C@@H](NC(=O)OCC(C)C)c4ccco4)C[C@@](O)([C@@H](OC(=O)c4ccccc4)C12)C3(C)C (stereo partly drawn) [Compound 3102] | < 1 nM
